We go through one compound from US9212204B2, “Treatment of rett syndrome using glycyl-L-2-methylprolyl-L-glutamic acid” (priority 2011, dated 2015).

Non-standard residues stand in square brackets, D forms with d. Residues, ends and D or L forms follow the SMILES beside them. αMeP = C[C@@]1(C(=O)O)CCCN1

One test has as its system MeCP2 knockout mice. The test is described as follows: Nocturnal activity measurements. Format: in vivo, mouse. To be noted: 20 mg/kg i.p. daily; after 6 weeks. As for the experimental part: For the survival measurements, the nocturnal activity analysis and the immunoblot analysis, G-2-MePE (synthesised Albany Molecular Research Inc. (Albany, N.Y.) and supplied by Neuren Pharmaceuticals Limited) is administered daily via intra-peritoneal injections (20 mg/kg, vehicle=saline, 0.01% BSA). The treatment starts at PI 5 and is maintained throughout the course of the experiments. For intracellular physiology experiments, the mice are injected daily with G-2-MePE (20 mg/kg body weight, vehicle=saline, 0.01% BSA) for 2 weeks, from P15 to P28-P32 when they are used for acute slice preparation. For optical imaging experiments, mice are injected with G-2-MePE (20 mg/kg body weight, vehicle=saline, 0.01% BSA) daily from the day of the lid suture to the day of imaging.
Spontaneous motor activity is measured by using an infrared beam-activated movement-monitoring chamber (Opto-Varimax-MiniA; Columbus Instruments, Columbus, Ohio). […] Movement is monitored during the normal 12-h dark cycle (7 p.m. to 7 a.m.). […]
MeCP2−/y mice develop Rett-like symptoms beginning at 4-6 weeks of age when they progressively become lethargic, develop gait ataxia and die between 10 and 12 weeks of age (Chen et al., 2001). Baseline locomotor activity is also recorded in mice after 6 weeks by counting nocturnal infrared beam crossing events within a caged area.

For test [1], the system named is neurons in the CA3 region of the hippocampus. As to the kind of experiment: Neuron soma size in the hippocampus. Format: in vivo, mouse. As to the method:
We also measure the effect of G-2-MePE treatment on neuron soma size in the hippocampus. Mice are treated with G-2-MePE as described above for locomotor activity.

Test [2] relates to MeCP2 deficient mice. As to the kind of experiment: Survival of MeCP2 deficient mice after oral administration. Format: in vivo, mouse. Conditions: 20 or 80 mg/kg daily. As for the experimental part: Therefore, we administer G-2-MePE orally to MeCP2 deficient mice as described in US 2009/0074865. Briefly, an aqueous solution, a water-in-oil emulsion (micro-emulsion, coarse emulsion or liquid crystal), or a gel composition containing a pharmaceutically effective amount of G-2-MePE (20 or 80 mg/kg per animal) is administered daily. In control MeCP2 deficient animals, we administer saline only, and wild-type animals are used to obtain baseline data similar to the design of studies described in Example 8 above.

Test [3] relates to MeCP2 deficient mice. The test is described as follows: Seizure activity, electroencephalographic recordings. Conditions: mouse, in vivo. The source says:
Because seizures are a prominent, hazardous and a difficult to treat aspect of Rett Syndrome, we determine the effects of G-2MePE on seizure activity in MeCP2 deficient animals. G-2-MePE can be effective in treating seizure activity in animals with neurodegenerative disease (U.S. Pat. No. 7,714,020). Therefore, we carry out experiments to determine whether G-2-MePE can also treat seizure activity in MeCP2 deficient mice. Electroencephalograpic recordings of wild-type mice and MeCP2 deficient mice treated with either saline or G-2-MePE are obtained using methods described in U.S. Pat. No. 7,714,020.

In test [4] the test system is heterozygous Shank3-deficient mice. As to the kind of experiment: Shank3-deficient mouse model, behavioral analyses. It is filed as in vivo. Conditions: 15 or 60 mg/kg oral b.i.d. for 14 days. The source says:
Heterozygous mice generated by crossing wild-type mice with heterozygotes are used in this example to best model the haploinsufficiency of Shank3, responsible for 22q13 deletion syndrome.
1 to 3 month old wild type and heterozygous Shank3-deficient mice are divided into 4 treatment groups: placebo treated wild-type, placebo treated Shank3-deficient group and two Shank3-deficient G-2-MePE treated groups. The animals are given placebo (water) or G-2-MePE formulated in water administered orally, b.i.d for 14 days. G-2-MePE is administered at two doses: 15 or 60 mg/kg.
Behavioral assessments are made at several, time points, and include analysis of social interactions and ultrasonic social communication, in line with the methodology described by Bozdagi et al. Briefly, male-female social interactions in each treatment group are evaluated. […] Videos from the male subjects are subsequently scored by an investigator uninformed of the subject's genotype and treatment group on measures of nose-to-nose sniffing, nose-to-anogenital sniffing and sniffing of other body regions, using Noldus Observer software (Noldus Information Technology, Leesburg, Va., USA). Ultrasonic vocalizations are identified manually by two highly trained investigators blinded to genotype/treatment group information, and summary statistics are calculated using the Avisoft package. […]

Test [5] concerns Tbx1 heterozygous, Cntnap2 knockout, Slc9a6 knockout and fmr1 knockout mice. The test is described as follows: Genetic mouse models of ASD and Fragile X Syndrome. It is filed as in vivo. To be noted: 20 mg/kg/day i.p. As to the method: Effects of G-2-MePE are further tested in the following genetic models of ASD: the Tbx1 heterozygous mouse, the Cntnap2 knockout mouse and the Sic9a6 knockout mouse. G-2-MePE is also tested in the fmr1 knockout mouse model of Fragile X Syndrome.
Animals in each of the above models are generated in accordance with the methodology described in the cited literature. Wild type equivalents are also obtained for each genetic model. Animals in each model are divided into three groups (n=10 to n=20): placebo treated wild type mice, mutant G-2-MePE-treated group and mutant placebo-treated control group.
The treatments are administered intraperitoneally: placebo (saline) or 20 mg/kg/day of G-2-MePE.

Test [6] has as its system animals with penetrating ballistic injury. Conditions: pTBI; cited from earlier work.

On to `C[C@@]1(C(=O)N[C@@H](CCC(=O)O)C(=O)O)CCCN1C(=O)CN` [Example G-2-MePE, Glycyl-L-2-methylprolyl-L-glutamic acid] (H-Gly-[αMeP]-Glu-OH), for which the “locomotor activity levels (nocturnal infrared beam crossing)” value in the test with MeCP2 knockout mice is “elevates”. For the same compound, the average soma size result in test [1] (KO animals) was “increases”. Moreover, the soma size entry in test [1] (wild type animals) was “little or no effect”. Also, the survival result in the test on MeCP2 deficient mice [2] is given as “increased substantially”. Moreover, in the test on MeCP2 deficient mice [3], the motor seizures result is on record as “effective in decreasing” and the non-convulsive seizures entry was “effective in decreasing”. For the same compound, the “cumulative duration of total social sniffing” value in test [4] (vs placebo treated Shank3-deficient group) is listed as “significant increase”. In addition, in test [4] (vs placebo treated mutant group), the “number of ultrasonic vocalizations” value was “increased number”. For the same compound, the “measures associated with the ASD phenotype” value in test [5] is “significantly improves”. The neuroinflammation result in test [6] was “inhibits”.
